From patent US7863295B2, “Treatments for neuropathy” (Children's Medical Center Corporation, priority 2008, dated 2011)

Assays:
GFAP-DN-erbB4 mice [1] = assay: Hot plate test (thermal nociception) in GFAP-DN-erbB4 mice treated topically with XIB4035 cream; format: in vivo, mouse; conditions: cream 1.2 mM on hind paws twice daily for 4 weeks from P21, vs control cream
Procedure: (§1) We generated a cream containing XIB4035 (1.2 mM) and applied it directly to the hind paws of GFAP-DN-erbB4 and wild type mice twice daily for a period of 4 weeks starting at the time of weaning (P21). […] Thus, these experiments would test whether activation of Ret signaling has therapeutic effects after disease onset. To control for potential effects of the control cream, mice of both genotypes were treated in the same way with the base cream without the drug. Mice were tested for responses to noxious thermal stimulus prior to the initiation of treatment and every 7 days throughout the treatment period. […] Together, these findings indicate that topical treatment with XIB4035 preserves the ability of mice with SFN to respond to noxious heat stimulus without inducing hypersensitivity.
(§2) Animals and induction of neuropathy using RTX. Transgenic mouse lines used were as previously described (6, 8). Animals were kept in the animal facility with free access to food and water. Behavioral experiments were performed in a quiet environment at the same time of day. […] Paw withdrawal latency was measured as the time required for the mouse to visibly respond to the thermal stimulus, e.g. licking paws, lifting paws, or jumping off of the plate. […] The threshold was determined as the lowest force that evoked a visible withdrawal response. […]

RTX-injected mice [2] = assay: Hot plate test in resiniferatoxin (RTX)-induced SFN; format: in vivo, mouse
Text: (§3) As it is unlikely that SFN is always caused by glial dysfunction, we considered it necessary to test the effectiveness of XIB4035 treatment on SFN resulting from a different pathogenic mechanism. Therefore we tested the efficacy of our therapeutic approach in resiniferatoxin (RTX)-induced SFN (9). RTX-induced SFN involves intraperitoneal injection of an ultrapotent capsaicin analog that targets c-fiber terminals by binding to and activating TRPV1 channels resulting in calcium influx, which induces loss of skin innervation and loss of thermal nociception (9). After RTX injection, mice were either treated immediately with XIB4035 or treatment was delayed by 12 hours. Both treatment paradigms yielded similar results.
(§4) Furthermore, innervation of the skin was preserved as a result of XIB4035 treatment in RTX-injected mice. […] Both c-fiber area and the number of fibers per Remak bundle were improved by treatment with XIB4035 in RTX-induced SFN.
as §2, with “water.” for “water. Behavioral experiments were performed in a quiet environment at the same time of day.”

GFAP-DN-erbB4 mice [3] = assay: Electron microscopy / morphometric analysis of Remak bundles in GFAP-DN-erbB4 mice; format: in vivo, mouse; conditions: 4-week topical treatment, 1.2 mM cream
Procedure: (§5) Preparation and Use of XIB4035. The cream containing XIB4035 (1.2 mM, Matrix Scientific, Columbia, S.C.) consisted of N-methyl-pyrrolidone (5%), isopropyl myristate (5%) and petroleum jelly (90%). Control cream had the same ingredients without XIB4035. Cream was applied twice daily to the hind paws of isoflurane anesthetized mice starting at P21 for a period of 9 days (for analysis of cell death in sciatic nerves) or 4 weeks (all other studies using GFAP-DN-erbB4). Treatment of RTX-induced neuropathy began at the time of RTX injection or 12 hours after RTX injection and proceeded twice daily for a period of one week.
(§6) Plastic Embedding and Electron Microscopy. Tissue was prepared as in (6). Briefly, mice were perfused intracardially with 2% paraformaldehyde, 2.5% gluteraldehyde and 0.03% picric acid in 0.1 M cacodylate buffer (pH 7.2). Tissue was post-fixed overnight at 4° C. and embedded in Epon. Ultrathin sections were cut, collected on cellodin-coated grids and stained using uranyl acetate and lead citrate. Photographs were taken using the Tecnai G^2 Spirit BioTWIN transmission electron microscope.

GFAP-DN-erbB4 mice [4] = assay: Footpad skin innervation (PGP9.5 immunohistochemistry) in GFAP-DN-erbB4 mice; format: in vivo, mouse; conditions: 4-week topical treatment, 1.2 mM cream
Procedure: as §5
(§7) Immunohistochemistry. Mice were anesthetized with 2.5% Avertin and footpad skin was removed and immersion fixed in 4% paraformaldehyde, 14% picric acid in 0.1 M phosphate buffer (pH 7.3) overnight at 4° C. and cryoprotected in 20% sucrose overnight at 4° C. Tissues were embedded in OCT and sectioned at 30 µm and stained as floating sections by washing 3 times for 5 minutes in PBS+0.1% Triton-X 100, blocked for 30 minutes in PBS+0.1% Triton-X 100+10% normal goat serum and then incubated, PGP9.5 rabbit polyclonal antibody (Ultraclone, 1:1000), overnight at 4° C. Sections were washed 3 times for 10 minutes in PBS+0.1% Triton-X 100 then incubated in donkey anti-rabbit Alexa-488 (Invitrogen) 1:300 for 2 hours at room temperature. […]

GFR[…]1 GDNF receptor [5] = biological target: T1, GFR[…]1 GDNF receptor (Mus musculus, UniProt P97785); conditions: murine cells; reference 11; cited from earlier work
T1 sequence (P97785 25-430): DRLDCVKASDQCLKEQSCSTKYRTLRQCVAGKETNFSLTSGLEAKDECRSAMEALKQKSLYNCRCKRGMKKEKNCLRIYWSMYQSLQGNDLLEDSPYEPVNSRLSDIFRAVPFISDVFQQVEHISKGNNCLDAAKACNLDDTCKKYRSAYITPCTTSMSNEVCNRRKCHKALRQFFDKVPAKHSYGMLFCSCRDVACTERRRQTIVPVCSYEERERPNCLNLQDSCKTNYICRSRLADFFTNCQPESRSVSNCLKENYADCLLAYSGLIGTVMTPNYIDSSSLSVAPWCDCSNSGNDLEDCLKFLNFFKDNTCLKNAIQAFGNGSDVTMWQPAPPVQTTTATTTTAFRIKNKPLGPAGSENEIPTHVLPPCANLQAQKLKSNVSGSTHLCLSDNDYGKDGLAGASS

[6] = tested on: GFAP-DN-erbB4 and wild type mice; assay: Mechanical sensitivity (von Frey filaments) after topical XIB4035 cream; format: in vivo; conditions: all groups (GFAP-DN-erbB4 and wild type) after 4 weeks of topical treatment, 1.2 mM cream
Procedure: as §1, §2

RTX-injected mice [7] = assay: Remak bundle structure (electron microscopy) in RTX-induced SFN; format: in vivo, mouse; conditions: topical cream 1.2 mM twice daily for one week
Text: as §3, §4, §5, §6

wild type mice [8] = assay: Footpad skin innervation (PGP9.5 immunohistochemistry) in wild type mice; format: in vivo, mouse; conditions: 4-week topical treatment, 1.2 mM cream
Procedure: as §5, §7

wild type mice [9] = assay: Hot plate test (thermal nociception) in wild type mice treated topically with XIB4035 cream; format: in vivo; conditions: cream 1.2 mM on hind paws twice daily for 4 weeks from P21
Procedure: as §1, §2

GFAP-DN-erbB4 mice [10] = assay: Cell death detection (TUNEL) in sciatic nerves of GFAP-DN-erbB4 mice; format: in vivo, mouse; conditions: sciatic nerve, topical cream 1.2 mM twice daily for 9 days from P21
Procedure: as §5
Cell Death Detection. Sciatic nerves were dissected from mice perfused with 4% paraformaldehyde in PBS and fixed overnight at 4° C. Nerves were embedded in OCT and 16 µm thick transverse sections were processed for TUNEL as follows. Sections were washed 3 times for 5 minutes with PBS followed by proteinase K digestion (0.02 U/mL) in 10 mM TRIS/HCl pH 7.5 for 30 minutes at 37° C. Digested sections were fixed with 4% paraformaldehyde at room temperature for 20 minutes followed by 3 washes in PBS for 5 minutes. Apoptotic nuclei were identified using the In Situ Cell Death Detection Kit (Roche). Nuclei were stained with DAPI and sections were mounted with Gel-Mount.

RTX-injected mice [11] = assay: Skin innervation in RTX-induced SFN; format: in vivo, mouse; conditions: topical cream 1.2 mM twice daily for one week
Text: as §3, §4
Preparation and Use of XIB4035. The cream containing XIB4035 (1.2 mM, Matrix Scientific, Columbia, S.C.) consisted of N-methyl-pyrrolidone (5%), isopropyl myristate (5%) and petroleum jelly (90%). Control cream had the same ingredients without XIB4035. […]

GFR[…]1 GDNF receptor [12] = biological target: T2, GFR[…]1 GDNF receptor (Homo sapiens, UniProt P56159); conditions: human cells; reference 11; cited from earlier work
T2 sequence (P56159 25-429): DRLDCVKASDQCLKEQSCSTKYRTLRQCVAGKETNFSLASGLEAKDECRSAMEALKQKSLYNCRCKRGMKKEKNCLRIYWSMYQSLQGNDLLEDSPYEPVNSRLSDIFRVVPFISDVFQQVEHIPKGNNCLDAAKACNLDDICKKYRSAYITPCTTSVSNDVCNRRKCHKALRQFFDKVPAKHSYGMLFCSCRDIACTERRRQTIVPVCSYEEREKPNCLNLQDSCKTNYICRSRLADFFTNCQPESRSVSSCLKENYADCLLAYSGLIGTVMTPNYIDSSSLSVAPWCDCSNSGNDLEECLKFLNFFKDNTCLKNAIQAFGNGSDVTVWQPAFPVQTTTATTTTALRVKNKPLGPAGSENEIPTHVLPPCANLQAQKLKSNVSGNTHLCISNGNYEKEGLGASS

## CCN(CC)CCCC(C)Nc1cc(/C=C/c2ccccc2Cl)nc2cc(Cl)ccc12 (centres unmarked) [XIB4035, N4-{7-chloro-2-[(E)-2-(2-chloro-phenyl)-vinyl]-quinolin-4-yl}-N1,N1-diethyl-pentane-1,4-diamine]
GFAP-DN-erbB4 mice [1]
  thermal nociception (hot plate, response to noxious thermal stimulus): dramatic preservation of thermal nociception
RTX-injected mice [2]; RTX model, cream 1.2 mM twice daily for one week, started at RTX injection or 12 hours later (similar results)
  thermal nociception: greatly improved thermal nociception
RTX-injected mice [2]; RTX-injected mice, seven days after RTX, vs control cream
  ability to respond to noxious heat (paw withdrawal latency): remarkable preservation of their ability to respond to noxious heat
GFAP-DN-erbB4 mice [3]
  degeneration of Remak bundles and c-fiber axons: prevented the degeneration of Remak bundles and c-fiber axons
  number of c-fibers per Remak bundle (morphometric analysis): preserved
  size of c-fiber axons (morphometric analysis): preserved
GFAP-DN-erbB4 mice [4]
  sensory nerve terminals in the footpad skin: prevented degeneration of sensory nerve terminals
GFR[…]1 GDNF receptor [5]
  activation of the Ret co-receptor by binding to the GDNF receptor: activate the Ret co-receptor
[6]
  response thresholds to punctate mechanical stimuli (mechanoreception): no effect on mechanoreception
RTX-injected mice [7]; RTX-induced SFN
  c-fiber area: improved
  number of fibers per Remak bundle: improved
RTX-injected mice [7]; RTX-injected mice
  Remak bundle structure: significantly improved
Wild type mice [8]
  density of nerve terminals in skin: increased the density of nerve terminals
Wild type mice [9]
  behavior in response to noxious thermal stimulus: remained normal
GFAP-DN-erbB4 mice [10]
  NMSC apoptosis: significantly reduced
RTX-injected mice [11]
  innervation of the skin: preserved
GFR[…]1 GDNF receptor [12]
  activation of the Ret co-receptor by binding to the GDNF receptor: activate the Ret co-receptor
